Square brackets hold non-standard residues; d marks the D form. Ends that are not written are not given here. pGlu = O=C1CC[C@@H](C(=O)O)N1

Type in all cases: cell-based
Assay [1] concerns the target T1, GAL2R (Homo sapiens, UniProt O43603).
T1 sequence (O43603 1-387): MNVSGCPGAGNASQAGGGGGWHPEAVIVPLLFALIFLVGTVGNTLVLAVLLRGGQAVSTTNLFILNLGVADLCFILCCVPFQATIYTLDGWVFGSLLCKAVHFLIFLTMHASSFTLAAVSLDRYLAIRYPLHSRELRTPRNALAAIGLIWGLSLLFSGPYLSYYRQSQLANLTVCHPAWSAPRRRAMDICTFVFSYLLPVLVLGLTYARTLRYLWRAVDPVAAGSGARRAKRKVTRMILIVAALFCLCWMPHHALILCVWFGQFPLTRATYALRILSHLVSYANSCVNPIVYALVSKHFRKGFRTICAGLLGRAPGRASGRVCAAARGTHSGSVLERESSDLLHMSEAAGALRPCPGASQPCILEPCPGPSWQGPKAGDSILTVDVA
Briefly: Fluo-4 Direct calcium assay (Ca efflux) in HEK293 cells overexpressing GAL2R. The settings on record: Table 3; HEK293 cells stably overexpressing GAL2R; Fluo-4, from 10 µM; (average) ratio, (n) in cell = number of assays; NA = ratio above 1000. The method, then:
Calcium efflux was measured by using a Fluo-4 Direct Calcium Assay purchased from Thermo Fisher Scientific. HEK293 cells with stable overexpression of GAL2R (HEKR2) (kindly provided by Harald Dargatz, Molecular, Cellular and Pharmacobiology Section, Institute of Pharmaceutical Biology, University of Bonn, 53,115 Bonn, Germany) were used for analysis of the lanthipeptides. HEKR2 cells were seeded in a 96-well plate and grown overnight in DMEM supplemented with 10% FBS, 1% penicillin–streptomycin, 100 µg/ml Normocin, and 500 µg/ml G418 at 37 °C, 5% CO2 in a humidified incubator.
The next day, when the cells were nearly confluent, an equal amount of 2 × Fluo-4 Direct™ calcium reagent loading solution, containing 5 mM probenecid, was added to the wells, and the plate was incubated for 1 h at 37 °C. A serial 3 × dilution of the agonist compound in water was made, and 10 µl of the serial dilutions was applied to the cells in duplicate. The starting concentration of agonist in the assay was 10 µM. After 1–2 h of incubation at room temperature, the fluorescence was measured with excitation at 485/20 nm and emission at 528/20 nm with a Synergy HT Biotek reader.

Assay [2] concerns the target T2, GAL1R (Homo sapiens, UniProt P47211).
T2 sequence (P47211 1-349): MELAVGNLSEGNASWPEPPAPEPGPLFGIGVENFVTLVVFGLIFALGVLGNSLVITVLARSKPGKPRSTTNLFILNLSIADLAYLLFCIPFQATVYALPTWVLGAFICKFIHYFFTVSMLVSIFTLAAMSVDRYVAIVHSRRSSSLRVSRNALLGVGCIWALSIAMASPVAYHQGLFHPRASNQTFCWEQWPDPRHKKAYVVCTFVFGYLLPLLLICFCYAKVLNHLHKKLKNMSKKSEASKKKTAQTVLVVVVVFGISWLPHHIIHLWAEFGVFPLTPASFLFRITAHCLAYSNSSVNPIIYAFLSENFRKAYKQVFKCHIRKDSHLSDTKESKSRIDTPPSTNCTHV
Briefly: cAMP Hunter eXpress GAL1R CHO-K1 GPCR assay (inhibition of forskolin-induced cAMP). Set-up: expressed in transfected cells. The following applies: Table 3; CHO-K1 cells expressing GAL1R; 20 µM forskolin; 10 µM to 5 nM; (average) ratio, (n) in cell = number of assays; NA = ratio above 1000. The method, then: To evaluate the ability of lanthipeptides to […] via GAL1R signaling, we used the cAMP Hunter™ eXpress GAL1R CHO-K1 GPCR Assay from Eurofins-DiscoverX. The assay was performed according to the manufacturer’s instructions. Briefly, for one assay, CHO-K1 cells expressing GAL1R were diluted in AssayComplete™ Cell Plating 2 Reagent, and 100 µl was seeded into each well of a 96-well plate. The plate was incubated at 37 °C, 5% CO2 in a humidified incubator. After 24 h of incubation, the media was aspirated, and 45 µl cell assay buffer/antibody mixture was added to all wells. […] Fifteen µl of the serial dilutions was applied in duplicates to the cells. The concentration of forskolin in the assay was 20 µM. The agonists were incubated for 30 min at 37 °C. Next, 15 µL Antibody Solution and 60 μL cAMP Working Detection Solution were added, and the plate was incubated for 1 h in the dark at room temperature. Finally, 60 μL cAMP Solution A was added and, after 3 h of incubation in the dark at room temperature, the chemiluminescent signal was read with a Synergy HT Biotek reader.

Assay [3] deals with T1, GAL2R. Nature of the assay: PathHunter eXpress β-arrestin recruitment assay, GAL2R. The following applies: Table 3; CHO-K1 cells co-expressing GAL2R and β-arrestin 2; 10 µM to 5 nM; (average) ratio, (n) in cell = number of assays; NA = ratio above 1000. Set-up: expressed in transfected cells. The method, then:
(§1) To evaluate the ability of lanthipeptides to recruit ß-arrestins via GAL1R or via GAL2R, we used the PathHunter® eXpress GAL1R, CHO-K1, β-arrestin GPCR Assay and the PathHunter® eXpress GAL2R, CHO-K1, β-arrestin, GPCR Assay from Eurofins-DiscoverX. The assays were performed according to the manufacturer’s instructions. Briefly, for one assay, CHO-K1 cells co-expressing GAL1R or GAL2R and β-arrestin (isoform 2) were diluted in AssayComplete™ Cell Plating Reagent, and 100 µl was seeded into each well of a 96-well plate. The plate was incubated at 37 °C, 5% CO2 in a humidified incubator. A serial 3 × dilution of the lanthipeptides in water was made (10 µM to 5 nM). After 48 h of incubation, 10 µl of the serial dilutions was applied to the cells in duplicate. The agonists were incubated for 90 min at 37 °C. Next, 55 µL of Working Detection Solution was added, and after 1 h of incubation at room temperature in the dark, the chemiluminescent signal was read with a Synergy HT Biotek reader.
(Recruitment of arrestin is a read-out of receptor activation apart from second messengers.)

The target of assay [4] is T2, GAL1R. Briefly: PathHunter eXpress β-arrestin recruitment assay, GAL1R. Set-up: expressed in transfected cells. The following applies: Table 3; CHO-K1 cells co-expressing GAL1R and β-arrestin 2; 10 µM to 5 nM; (average) ratio, (n) in cell = number of assays; NA = ratio above 1000. The method, then:
as §1

With “GWNLNAATYLCGPHAVGNHR (also: sidechain bridge or staple (positions not given here)) [Variant M60, methyllanthionine-containing galanin variant produced in L. lactis]”, the “EC50 ratios to Gal-(1-15), GAL2R Ca-efflux” value (shortened to “EC50 ratios … GAL2R Ca-efflux”) in assay [1] is given as 8.7 (1). For the same substance, the “EC50 ratios to Gal-(1-15), GAL1R cAMP” value in assay [2] was “NA (2) (NA is not active; ratios above 1000 were considered to be not active)”. Further, in assay [3], the “EC50 ratios to Gal-(1-15), GAL2R ß-Arrestin” value (shortened to “EC50 ratios … GAL2R ß-Arrestin”) was “NA (1) (NA is not active; ratios above 1000 were considered to be not active)”.

As for “[pGlu]WNLNAAGYLLGATAVCNH (also: sidechain bridge or staple (positions not given here)) [Variant M54tr, pyroglutamate- and methyllanthionine-containing galanin variant]”, the “EC50 ratios … GAL2R Ca-efflux” value in assay [1] is on record as 1.2 (2). Also, the “EC50 ratios to Gal-(1-15), GAL1R ß-Arrestin” value (“EC50 ratios … GAL1R ß-Arrestin” below) in assay [4] is given as “NA (1) (NA is not active; ratios above 1000 were considered to be not active)”. Also, in assay [2], the “EC50 ratios to Gal-(1-15), GAL1R cAMP” value is 16 (1). In addition, the “EC50 ratios … GAL2R ß-Arrestin” value in assay [3] was 1 (1).

Turning to “GWNLNAAGYLLGATAVGCHR (also: sidechain bridge or staple (positions not given here)) [Variant M76, methyllanthionine-containing galanin variant produced in L. lactis]”, the “EC50 ratios … GAL2R Ca-efflux” value in assay [1] was 0.9 (1). In addition, in assay [4], the “EC50 ratios … GAL1R ß-Arrestin” value was 1.0 (1). The “EC50 ratios to Gal-(1-15), GAL1R cAMP” value in assay [2] was 0.6 (1). In assay [3], the “EC50 ratios … GAL2R ß-Arrestin” value is listed as 1.0 (1).

On to “GWNLNAAGYLLATHACG (also: sidechain bridge or staple (positions not given here)) [Variant M89, methyllanthionine-containing galanin variant produced in L. lactis]”, for which the “EC50 ratios … GAL2R Ca-efflux” value in assay [1] is 2.7 (1). In assay [4], the “EC50 ratios … GAL1R ß-Arrestin” value is given as 148 (1). In addition, in assay [2], the “EC50 ratios to Gal-(1-15), GAL1R cAMP” value was “NA (1) (NA is not active; ratios above 1000 were considered to be not active)”. Besides, in assay [3], the “EC50 ratios … GAL2R ß-Arrestin” value is given as 3 (1).

Regarding “GWNLNAAGYLLATHACGNHR (also: sidechain bridge or staple (positions not given here)) [Variant M50, methyllanthionine-containing galanin variant produced in L. lactis]”, in assay [1], the “EC50 ratios … GAL2R Ca-efflux” value is 3.5 (2). The “EC50 ratios … GAL1R ß-Arrestin” value in assay [4] is 3.8 (1). The “EC50 ratios to Gal-(1-15), GAL1R cAMP” value in assay [2] was 12.5 (1). The “EC50 ratios … GAL2R ß-Arrestin” value in assay [3] is given as 0.5 (1).

As to “GWNLNAAGYLLGPHATGNCR (also: sidechain bridge or staple (positions not given here)) [Variant M74, methyllanthionine-containing galanin variant produced in L. lactis]”, in assay [1], the “EC50 ratios … GAL2R Ca-efflux” value is recorded as 4.7 (1). For the same substance, in assay [4], the “EC50 ratios … GAL1R ß-Arrestin” value is given as 2.3 (1). Further, in assay [2], the “EC50 ratios to Gal-(1-15), GAL1R cAMP” value is on record as 4.6 (1). For the same substance, the “EC50 ratios … GAL2R ß-Arrestin” value in assay [3] was 2.6 (1).

For the substance “[pGlu]WNLNAAGYLLGPHTVGCHR (also: sidechain bridge or staple (positions not given here)) [Variant M83, pyroglutamate- and methyllanthionine-containing galanin variant]”, in assay [1], the “EC50 ratios … GAL2R Ca-efflux” value was 7.3 (1). Also, the “EC50 ratios … GAL1R ß-Arrestin” value in assay [4] was 123 (1). In assay [2], the “EC50 ratios to Gal-(1-15), GAL1R cAMP” value is “NA (1) (NA is not active; ratios above 1000 were considered to be not active)”. In assay [3], the “EC50 ratios … GAL2R ß-Arrestin” value is listed as 78 (1).

With “[pGlu]WNLNAAGYLLGATAVGCHR (also: sidechain bridge or staple (positions not given here)) [Variant M76b, pyroglutamate- and methyllanthionine-containing galanin variant]”, the “EC50 ratios … GAL2R Ca-efflux” value in assay [1] was 1.0 (1). In addition, the “EC50 ratios … GAL1R ß-Arrestin” value in assay [4] is recorded as 9.6 (1). The “EC50 ratios to Gal-(1-15), GAL1R cAMP” value in assay [2] is 12.2 (1). In assay [3], the “EC50 ratios … GAL2R ß-Arrestin” value is 0.5 (1).

Take “GWNLNAAGYLLGATAVC (also: sidechain bridge or staple (positions not given here)) [Variant M90, methyllanthionine-containing galanin variant produced in L. lactis]”: the “EC50 ratios … GAL2R Ca-efflux” value in assay [1] is reported as 4.6 (1). In addition, the “EC50 ratios … GAL1R ß-Arrestin” value in assay [4] is on record as 2.7 (1). In addition, the “EC50 ratios to Gal-(1-15), GAL1R cAMP” value in assay [2] is 4.9 (1). In assay [3], the “EC50 ratios … GAL2R ß-Arrestin” value is listed as 3.2 (1).

As for “GWNLNAAGYLLGPHTVGCHR (also: sidechain bridge or staple (positions not given here)) [Variant M52, methyllanthionine-containing galanin variant produced in L. lactis]”, the “EC50 ratios … GAL2R Ca-efflux” value in assay [1] was 1.9 (1). Further, the “EC50 ratios … GAL1R ß-Arrestin” value in assay [4] is given as 8.3 (1). Besides, in assay [2], the “EC50 ratios to Gal-(1-15), GAL1R cAMP” value is reported as 7.5 (2). Further, the “EC50 ratios … GAL2R ß-Arrestin” value in assay [3] was 0.6 (1).

For the substance “GWNLNAAGYLLGATAVCNHR (also: sidechain bridge or staple (positions not given here)) [Variant M51, methyllanthionine-containing galanin variant produced in L. lactis]”, in assay [1], the “EC50 ratios … GAL2R Ca-efflux” value is listed as 2.9 (2). For the same substance, the “EC50 ratios … GAL1R ß-Arrestin” value in assay [4] is 1.5 (2). Moreover, in assay [2], the “EC50 ratios to Gal-(1-15), GAL1R cAMP” value is recorded as 3.6 (1). Also, in assay [3], the “EC50 ratios … GAL2R ß-Arrestin” value is listed as 0.6 (2).

As to “GWNLNAAGYLLGTHACG (also: sidechain bridge or staple (positions not given here)) [Variant M84, methyllanthionine-containing galanin variant produced in L. lactis]”, in assay [1], the “EC50 ratios … GAL2R Ca-efflux” value was 6.3 (1). The “EC50 ratios … GAL1R ß-Arrestin” value in assay [4] is on record as 35 (1). Further, in assay [3], the “EC50 ratios … GAL2R ß-Arrestin” value is reported as “NA (1) (NA is not active; ratios above 1000 were considered to be not active)”.

The values above are taken from PMC8804135 (Neurotherapeutics, 2021).
